Test results: patent US20250136581A1, “SUBSTITUTED TRIAZOLE DERIVATIVE, PREPARATION METHOD THEREFOR, PHARMACEUTICAL COMPOSITION THEREOF, AND USE THEREOF” (SHANGHAI SIMR BIOTECHNOLOGY CO., LTD., priority 2021, published 2025)
Where two headings read alike, the source gives them in different places.

How the values were obtained:
[1] = molecular target: α5-GABAA receptor (α5, β3, γ2 subunits) (Homo sapiens (Human), UniProt P18507+P31644); assay: Whole cell patch clamp, inverse agonist efficacy in HEK293 cells expressing α5-GABAA receptor; type: cell-based; settings: HEK293, drug 100 nM, GABA 0.05 μM, −60 mV; read-out: Compound inverse agonist efficacy %
How it was run: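 Stable HEK293 line co-expressing human α5, β3, γ2 subunits; whole-cell patch clamp at −60 mV, inward current evoked by 0.05 μM GABA, then compound at 100 nM in GABA solution applied. Effect derived from leak, pre- and post-drug GABA currents.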

[2] = molecular target: human α5β3γ2 receptors (α5-GABAA receptor) (Homo sapiens (Human), UniProt P18507+P31644); assay: 3H-flunitrazepam competition binding, human α5β3γ2 GABAA receptor; settings: HEK293 cell membranes, 1 nM 3H-flunitrazepam
How it was run: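 HEK293 membranes stably expressing each human receptor subtype ([…]) competed against 1 nM 3H-flunitrazepam in Tris buffer, 1 h at room temperature; flumazenil defined the low-signal control. Eight-point 4-fold test-compound dilutions; GF/C filtration and scintillation counting gave IC50 by curve fitting, converted to Ki.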

| Structure (SMILES) | inhibition at 0.1 µM [1] [%] | Ki ([2]; read-out: α5-GABAAR Ki) [nM] | Ki ([2]; α5-GABAAR Ki) [nM] |
| --- | --- | --- | --- |
| Cc1nnn(-c2ccc(C(F)F)cc2)c1COc1ccc(N2CCN3C4CCCCC4NC(=O)[C@@H]3C2)nn1 (stereo partly drawn) [Example 199, (4aS)-3-(6-((1-(4-(Difluoromethyl)phenyl)-4-methyl-1H-1,2,3-triazol-5-yl)methoxy)pyridazin-3-yl)decahydro-1H-pyrazino[1,2-a]quinoxalin-5(6H)-one] | 60.2 | – | 3.17 |
| Cc1nnn(-c2ccc(C(F)F)cc2)c1COc1ccc(N2CC(C(=O)NC3COC3)C2)nn1 [Example 45, 1-(6-((1-(4-(Difluoromethyl)phenyl)-4-methyl-1H-1,2,3-triazol-5-yl)methoxy)pyridazin-3-yl)-N-(oxetan-pyridin-3-yl)azetidine-3-carboxamide] | 50.8 | 3.26 | – |
| Cc1nnn(-c2ccc(C(F)F)cc2)c1COc1ccc(N2CC(C(=O)NC3CCN(C)CC3)C2)nn1 [Example 46, 1-(6-((1-(4-(Difluoromethyl)phenyl)-4-methyl-1H-1,2,3-triazol-5-yl)methoxy)pyridazin-3-yl)-N-(1-methylpiperidin-4-yl)azetidine-3-carboxamide] | 41.8 | 1.91 | – |
| Cc1nnn(-c2ccc(C(F)F)cc2)c1COc1ccc(N2CC(C(=O)N3CCCC(O)C3)C2)nn1 (stereo not shown) [Example 154, (1-(6-((1-(4-(Difluoromethyl)phenyl)-4-methyl-1H-1,2,3-triazol-5-yl)methoxy)pyridazin-3-yl)azetidin-3-yl)(3-hydroxypiperidin-1-yl)methanone] | 46.6 | 5.26 | – |
| Cc1nnn(-c2ccc(C(F)F)cc2)c1COc1ccc(N2CCN3[C@@H](C2)C(=O)N[C@@H]2CCC[C@@H]23)nn1 [Example 198, (4aS,6aR,9aS)-3-(6-((1-(4-(difluoromethyl)phenyl)-4-methyl-1H-1,2,3-triazol-5-yl)methoxy)pyridazin-3-yl)decahydrocyclopenta[e]pyrazino[1,2-a]pyrazin-5(1H)-one] | 48.2 | – | 3.13 |
| Cc1nnn(-c2ccc(C(F)F)cc2)c1COc1ccc(N2CCN(CCN3CCC(F)(F)C3)C(=O)C2)nn1 [Example 110, 4-(6-((1-(4-(Difluoromethyl)phenyl)-4-methyl-1H-1,2,3-triazol-5-yl)methoxy)pyridazin-3-yl)-1-(2-(3,3-difluoropyrrolidin-1-yl)ethyl)piperazin-2-one] | 47.5 | 1.6 | – |
| Cc1nnn(-c2ccc(C(F)F)cc2)c1COc1ccc(N2CCN(CCCc3ccc(C#N)cc3)C(=O)C2)nn1 [Example 145, 4-(3-(4-(6-((1-(4-(Difluoromethyl)phenyl)-4-methyl-1H-1,2,3-triazol-5-yl)methoxy)pyridazin-3-yl)-2-oxopiperazin-1-yl)propyl)benzonitrile] | 69 | 1.27 | – |
| Cc1nnn(-c2ccc(C(F)F)cc2F)c1COc1ccc(N2CCN3CCNC(=O)[C@@H]3C2)nn1 [Example 168, (S)-8-(6-((1-(4-(Difluoromethyl)-2-fluorophenyl)-4-methyl-1H-1,2,3-triazol-5-yl)methoxy)pyridazin-3-yl)hexahydro-2H-pyrazino[1,2-a]pyrazin-1(6H)-one] | 42.4 | 2.84 | – |
| Cc1nnn(-c2ccc(C(F)F)cc2)c1COc1ccc(N2CC(C(=O)N3CC4CC3CO4)C2)nn1 (stereo not shown) [Example 157, (2-Oxa-5-azabicyclo[2.2.1]heptan-5-yl)(1-(6-((1-(4-(difluoromethyl)phenyl)-4-methyl-1H-1,2,3-triazol-5-yl)methoxy)pyridazin-3-yl)azetidin-3-yl)methanone] | 44.2 | 3.53 | – |

Second part, led by results:

| inhibition at 0.1 µM [1] [%] | Ki ([2]; read-out: α5-GABAAR Ki) [nM] | Structure (SMILES) | Ki ([2]; α5-GABAAR Ki) [nM] |
| --- | --- | --- | --- |
| 53.7 | 1.53 | Cc1nnn(-c2ccc(C(F)F)cc2)c1COc1ccc(N2CCN(CC3CCOC3)C(=O)C2)nn1 (stereo not shown) [Example 98, 4-(6-((1-(4-(Difluoromethyl)phenyl)-4-methyl-1H-1,2,3-triazol-5-yl)methoxy)pyridazin-3-yl)-1-((tetrahydrofuran-3-yl)methyl)piperazin-2-one] | – |
| 40.8 | 1.28 | Cc1nnn(-c2ccc(C(F)F)cc2)c1COc1ccc(N2CCNC(=O)CC2)nn1 [Example 3, 1-(6-((1-(4-(Difluoromethyl)phenyl)-4-methyl-1H-1,2,3-triazol-5-yl)methoxy)pyridazin-3-yl)-1,4-diazepan-5-one] | – |
| 52 | 0.27 | Cc1nnn(-c2ccc(C(F)F)cc2)c1COc1ccc(C2=CC(=O)NCC2)nn1 [Example 57, 4-(6-((1-(4-(Difluoromethyl)phenyl)-4-methyl-1H-1,2,3-triazol-5-yl)methoxy)pyridazin-3-yl)-5,6-dihydropyridin-2(1H)-one] | – |
| 51.2 | 1.97 | Cc1nnn(-c2ccc(C(F)F)cc2)c1COc1ccc(N2CCCC2=O)nn1 [Example 20, 1-(6-((1-(4-(Difluoromethyl)phenyl)-4-methyl-1H-1,2,3-triazol-5-yl)methoxy)pyridazin-3-yl)pyrrolidin-2-one] | – |
| 53.2 | 12.1 | O=C1CN(c2ccc(OCc3cnnn3-c3ccc(C(F)F)cc3)nn2)CCN1 [Example 132, 4-(6-((1-(4-(Difluoromethyl)phenyl)-1H-1,2,3-triazol-5-yl)methoxy)pyridazin-3-yl)piperazin-2-one] | – |
| 51.9 | 4.92 | Cc1nnn(-c2ccc(C(F)F)cc2)c1COc1ccc(N2CCN3C(C(C)C)CNC(=O)[C@@H]3C2)nn1 (stereo partly shown) [Example 207] | – |
| 46.5 | 1.34 | Cc1nnn(-c2ccc(C(F)F)cc2)c1COc1ccc(N2CCN(CC3CCCO3)C(=O)C2)nn1 (stereo not shown) [Example 96, 4-(6-((1-(4-(Difluoromethyl)phenyl)-4-methyl-1H-1,2,3-triazol-5-yl)methoxy)pyridazin-3-yl)-1-((tetrahydrofuran-2-yl)methyl)piperazin-2-one] | – |
| 56.1 | 2.37 | Cc1nnn(-c2ccc(C(F)F)cc2)c1COc1ccc(N2CCN3C(=O)CNC(=O)[C@H]3C2)nn1 [Example 65, (R)-8-(6-((1-(4-(Difluoromethyl)phenyl)-4-methyl-1H-1,2,3-triazol-5-yl)methoxy)pyridazin-3-yl)hexahydro-1H-pyrazino[1,2-a]pyrazine-1,4(6H)-dione] | – |
